Mean survival time data for 8 compounds are collected here from ChEMBL document CHEMBL1125207, “Monoterpenic fragment analogues of aplasmomycin as potential antimalarial” (1991).

SMILES strings stand for the structures.

Format in all cases: functional
Assay [1] has as its system Plasmodium berghei. Description: In vivo antimalarial activity against Plasmodium berghei in mice (Mus musculus) at 160 mg/kg dose as mean survival time.
Assay [2] relates to Plasmodium berghei. Description: In vivo antimalarial activity against Plasmodium berghei in mice (Mus musculus) at 20 mg/kg as mean survival time.
In assay [3] the test system is Plasmodium berghei. In words: In vivo antimalarial activity against Plasmodium berghei in mice (Mus musculus) at 40 mg/kg dose as mean survival time.
Assay [4] deals with Plasmodium berghei. In words: In vivo antimalarial activity against Plasmodium berghei in mice (Mus musculus) at 80 mg/kg dose as mean survival time.
Assay [5] relates to Plasmodium berghei. Description: In vivo antimalarial activity against Plasmodium berghei in mice (Mus musculus) at 20 mg/kg dose as mean survival time.
For assay [6], the system named is Plasmodium berghei. In words: In vivo antimalarial activity against Plasmodium berghei in mice (Mus musculus) at 40 mg/kg dose as mean survival time after 60 days.
The subject of assay [7] is Plasmodium berghei. In words: In vivo antimalarial activity against Plasmodium berghei in mice (Mus musculus) at 160 mg/kg dose as mean survival time of mice (Mus musculus) after 60 days.

As to `CCOC(=O)C(O)C1OC(C(C)(C)O)CCC1C` (stereo not drawn), the Mean survival time in assay [1] is 11.4 days; in assay [2], 6.4 days; in assay [3], 7.2 days; in assay [4], 8.4 days.

For the compound `C[C@@H]1CC[C@H]2[C@@H](C)C(=O)O[C@@H]3O[C@@]4(C)CC[C@@H]1[C@]32OO4` [ARTEMISININ], the Mean survival time in assay [5] stood at 10.8 days; in assay [6], 30.6 days.

In the case of `CCOC(=O)/C=C/C(C)CCC=C(C)C` (stereo not drawn), the Mean survival time in assay [1] worked out at 8 days; in assay [5], 5.4 days; in assay [3], 6 days; in assay [4], 7.2 days.

`CCOC(=O)/C=C/CC(C)CCC=C(C)C` (stereo not drawn): the Mean survival time in assay [1] was 12.4 days; in assay [5], 6 days; in assay [3], 8.2 days; in assay [4] it was 10.4 days; in assay [7], 29.6 days.

`C[C@@H]1CC[C@@H]([C@@H](C)CO)[C@H](O)C1`: the Mean survival time worked out at 8.2 days in assay [1], 5.4 days in assay [2], 6.2 days in assay [3] and 7 days in assay [4].

Take `CCOC(=O)/C=C/C=C(\C)CCC1OC1(C)C` (stereo not drawn): the Mean survival time is 12.6 days in assay [1]; 7.8 days in assay [5]; 8.6 days in assay [3]; 9.2 days in assay [4]; 30.4 days in assay [7].

In the case of `CCOC(=O)/C=C/C=C(C)C`, the Mean survival time in assay [1] amounted to 8.8 days; in assay [5], 5.4 days; in assay [3], 6 days; in assay [4] it was 7.4 days.

In the case of `C[C@@H]1CC[C@H]2[C@@H](C)CO[B-]3(OC[C@H](C)[C@@H]4CC[C@@H](C)C[C@H]4O3)O[C@@H]2C1.[Na+]` (stereo partly drawn), the Mean survival time turned out to be 12.6 days in assay [1]; 9 days in assay [5]; 9.6 days in assay [3]; 10.8 days in assay [4]; 28.6 days in assay [7].
